The values below come from publication PMC11021962, “Coupling and regulation mechanisms of the flavin-dependent halogenase PyrH observed by infrared difference spectroscopy” (The Journal of Biological Chemistry, 2024).

Test [1] concerns the target T1, PyrH (Streptomyces rugosporus, UniProt A4D0H5). Kind of test: UV-vis spectroscopy after reconstitution and washing; light-induced FTIR difference spectroscopy. Format: binding. The settings on record: pH 8.3, 20 mM NaCl, 60 mM potassium phosphate.
The target in test [2] is T1, PyrH. The test is described as follows: light-induced FTIR difference spectroscopy. The settings on record: 3 mM compound, FAD-bound enzyme, 20 mM chloride, 35 mM DTT, pH 8.3, 10 °C, anaerobic, 450 nm photoreduction; substrate-binding site, allosterically coupled to FAD site.

T1 sequence (A4D0H5 whole entry): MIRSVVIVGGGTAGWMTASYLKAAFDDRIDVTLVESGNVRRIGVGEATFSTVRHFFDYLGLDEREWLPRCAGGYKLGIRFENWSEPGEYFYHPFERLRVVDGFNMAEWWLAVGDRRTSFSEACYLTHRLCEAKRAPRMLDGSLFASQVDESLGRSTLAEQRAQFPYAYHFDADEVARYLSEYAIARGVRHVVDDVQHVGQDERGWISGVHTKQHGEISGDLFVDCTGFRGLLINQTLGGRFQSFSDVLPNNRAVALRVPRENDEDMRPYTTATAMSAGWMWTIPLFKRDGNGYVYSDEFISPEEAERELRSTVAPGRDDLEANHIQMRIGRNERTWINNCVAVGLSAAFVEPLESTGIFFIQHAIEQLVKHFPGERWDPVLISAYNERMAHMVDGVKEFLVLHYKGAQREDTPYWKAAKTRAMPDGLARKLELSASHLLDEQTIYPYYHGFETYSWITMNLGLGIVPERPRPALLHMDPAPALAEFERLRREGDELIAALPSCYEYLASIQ

Consider `Cc1cc2nc3c(=O)[nH]c(=O)nc-3n(C[C@H](O)[C@H](O)[C@H](O)COP(=O)(O)OP(=O)(O)OC[C@H]3O[C@@H](n4cnc5c(N)ncnc54)[C@H](O)[C@@H]3O)c2cc1C` [FAD], for which the “UV-vis spectroscopy after reconstitution and washing; light-induced FTIR differe” value in test [1] is on record as “FAD remained bound to PyrH in all three samples after extensive washing steps”.

`N[C@@H](Cc1c[nH]c2ccccc12)C(=O)O` [tryptophan]: the “light-induced FTIR difference spectroscopy” value in test [2] was “Tryptophan binding causes a change in the environment of FAD”. Same read-out and setting: the same measure for `N[C@@H](Cc1c[nH]c2ccc(Cl)cc12)C(=O)O` [5-chlorotryptophan]: “The binding of 5-chlorotryptophan also leads to a reduction of secondary structure changes”.
